Source: patent US20260055079A1, “PHTHALAZINONE COMPOUNDS AS PARP7 INHIBITORS” (AZKARRA THERAPEUTICS, INC., priority 2022, published 2026)

biological target: His-GST-PARP7 (Homo sapiens (Human), UniProt Q7Z3E1); test: PARP7 biochemical assay; details: read-out: PARP7 IC50
Sequence (Q7Z3E1 whole entry): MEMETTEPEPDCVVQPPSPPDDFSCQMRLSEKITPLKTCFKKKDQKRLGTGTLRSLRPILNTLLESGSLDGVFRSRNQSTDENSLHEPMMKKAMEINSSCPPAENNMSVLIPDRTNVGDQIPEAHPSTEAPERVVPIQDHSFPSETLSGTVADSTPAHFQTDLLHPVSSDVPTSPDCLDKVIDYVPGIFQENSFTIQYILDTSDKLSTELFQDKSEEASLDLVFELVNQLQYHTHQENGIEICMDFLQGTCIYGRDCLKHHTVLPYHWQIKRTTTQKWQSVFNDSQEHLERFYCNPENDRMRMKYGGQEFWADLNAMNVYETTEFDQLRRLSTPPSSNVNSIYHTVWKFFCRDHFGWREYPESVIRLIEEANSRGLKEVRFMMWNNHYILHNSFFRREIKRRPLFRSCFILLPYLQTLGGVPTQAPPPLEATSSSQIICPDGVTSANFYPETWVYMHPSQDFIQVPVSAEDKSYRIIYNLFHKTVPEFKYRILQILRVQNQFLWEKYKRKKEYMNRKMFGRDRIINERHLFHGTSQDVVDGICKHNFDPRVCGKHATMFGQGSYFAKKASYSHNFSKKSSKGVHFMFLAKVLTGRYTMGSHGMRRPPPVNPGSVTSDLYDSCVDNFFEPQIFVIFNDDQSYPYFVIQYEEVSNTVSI

Q: How did the IC50 turn out when “4-(4-Fluoro-3-(4-(5-(trifluoromethyl)pyrimidin-2-yl)piperazine-1-carbonyl)benzyl)-6-(3,3,3-trifluoroprop-1-yn-1-yl)phthalazin-1(2H)-one [Example 42]” was run?
A: 500 to 2000 nM

Q: For “6-(3-(5-((7-Cyclobutoxy-4-oxo-3,4-dihydrophthalazin-1-yl)methyl)-2-fluorobenzoyl)-3,8-diazabicyclo[3.2.1]octan-8-yl)nicotinonitrile [Example 99]”, which IC50 is on record?
A: < 50 nM

Q: With `O=C(c1cc(Cc2n[nH]c(=O)c3ccc(OC4CCC4)cc23)ccc1F)N1C[C@@H]2CC[C@H]1CN2C(=O)C1CC1` (stereo in doubt) [Example 142, 6-Cyclobutoxy-4-(3-(5-(cyclopropanecarbonyl)-2,5-diazabicyclo[2.2.2]octane-2-carbonyl)-4-fluorobenzyl)phthalazin-1(2H)-one] as the compound, how does the IC50 read?
A: 100 to 500 nM

Q: For `N#Cc1ccc(N2C[C@H]3C[C@@H]2CN3C(=O)c2cccc(Cc3n[nH]c(=O)c4ccc(-c5cccnc5)cc34)c2)nc1` (stereo in doubt) [Example 184, 6-(5-(3-((4-Oxo-7-(pyridin-3-yl)-3,4-dihydrophthalazin-1-yl)methyl)benzoyl)-2,5-diazabicyclo[2.2.1]heptan-2-yl)nicotinonitrile], which IC50 is on record?
A: 100 to 500 nM

Q: With `C/C(=C\C(F)(F)F)c1ccc2c(=O)[nH]nc(Cc3ccc(F)c(C(=O)N4CCN(c5ccc(C#N)cn5)CC4)c3)c2c1` [Example 32, (E)-6-(4-(2-fluoro-5-((4-oxo-7-(4,4,4-trifluorobut-2-en-2-yl)-3,4-dihydrophthalazin-1-yl)methyl)benzoyl)piperazin-1-yl)nicotinonitrile] as the compound, how does the IC50 read?
A: < 50 nM

Q: `N#Cc1ccc(N2CCN(C(=O)c3cc(Cc4n[nH]c(=O)c5ccc(N6CC7(C6)CC(F)(F)C7)cc45)ccc3F)CC2)nc1` [Example 35, 6-(4-(5-((7-(6,6-Difluoro-2-azaspiro[3.3]heptan-2-yl)-4-oxo-3,4-dihydrophthalazin-1-yl)methyl)-2-fluorobenzoyl)piperazin-1-yl)nicotinonitrile] was tested. Which IC50 did it give?
A: 50 to 100 nM

Q: With `N#Cc1ccc(N2CCN(C(=O)c3cc(Cc4n[nH]c(=O)c5ccc(Oc6ccccn6)cc45)ccc3F)CC2)nc1` [Example 38, 6-(4-(2-Fluoro-5-((4-oxo-7-(pyridin-2-yloxy)-3,4-dihydrophthalazin-1-yl)methyl)benzoyl)piperazin-1-yl)nicotinonitrile] as the compound, how does the IC50 read?
A: < 50 nM

Q: How did the IC50 turn out when `N#Cc1ccc(N2CCN(C(=O)c3cc(Cc4n[nH]c(=O)c5ccc(Oc6ccc7ccccc7c6)cc45)ccc3F)CC2)nc1` [Example 39, 6-(4-(2-Fluoro-5-((7-(naphthalen-2-yloxy)-4-oxo-3,4-dihydrophthalazin-1-yl)methyl)benzoyl)piperazin-1-yl)nicotinonitrile] was run?
A: 50 to 100 nM

Q: `CC#Cc1ccc2c(=O)[nH]nc(Cc3ccc(F)c(C(=O)N4CCN(c5ncc(C(F)(F)F)cn5)CC4)c3)c2c1` [Example 48, 4-(4-Fluoro-3-(4-(5-(trifluoromethyl)pyrimidin-2-yl)piperazine-1-carbonyl)benzyl)-6-(prop-1-yn-1-yl)phthalazin-1(2H)-one] was tested. Which IC50 did it give?
A: 100 to 500 nM

Q: `N#Cc1ccc(N2CCN(C(=O)c3cc(Cc4n[nH]c(=O)c5ccc(S(=O)(=O)C6CC(F)(F)C6)cc45)ccc3F)CC2)nc1` [Example 54, 6-(4-(5-((7-((3,3-Difluorocyclobutyl)sulfonyl)-4-oxo-3,4-dihydrophthalazin-1-yl)methyl)-2-fluorobenzoyl)piperazin-1-yl)nicotinonitrile] was tested. Which IC50 did it give?
A: 500 to 2000 nM

Q: For `CC#Cc1ccc2c(=O)[nH]nc(Cc3ccc(F)c(C(=O)N4CCN(c5cncc(C#N)n5)CC4)c3)c2c1` [Example 55, 6-(4-(2-Fluoro-5-((4-oxo-7-(prop-1-ynyl)-3,4-dihydrophthalazin-1-yl)methyl)benzoyl)piperazin-1-yl)pyrazine-2-carbonitrile], which IC50 is on record?
A: 100 to 500 nM

Q: How did the IC50 turn out when `CC#Cc1ccc2c(=O)[nH]nc(Cc3ccc(F)c(C(=O)N4CCN(C(=O)CCC(F)(F)F)CC4)c3)c2c1` [Example 57, 4-(4-Fluoro-3-(4-(4,4,4-trifluorobutanoyl)piperazine-1-carbonyl)benzyl)-6-(prop-1-ynyl)phthalazin-1(2H)-one] was run?
A: < 50 nM

Q: With `CC#Cc1ccc2c(=O)[nH]nc(Cc3ccc(F)c(C(=O)N4CCn5c(nnc5-c5ccccc5CC)C4)c3)c2c1` [Example 59, 4-(3-(3-(2-Ethylphenyl)-5,6,7,8-tetrahydro-[1,2,4]triazolo[4,3-a]pyrazine-7-carbonyl)-4-fluorobenzyl)-6-(prop-1-ynyl)phthalazin-1(2H)-one] as the compound, how does the IC50 read?
A: 100 to 500 nM

Q: Which IC50 does the source give for `CC#Cc1ccc2c(=O)[nH]nc(Cc3ccc(F)c(C(=O)N4CC5CCC(C4)N5c4ccc(C#N)cn4)c3)c2c1` [Example 64, 6-(3-(2-Fluoro-5-((4-oxo-7-(prop-1-ynyl)-3,4-dihydrophthalazin-1-yl)methyl)benzoyl)-3,8-diazabicyclo[3.2.1]octan-8-yl)nicotinonitrile] here?
A: < 50 nM

Q: Which IC50 does the source give for `CC#Cc1ccc2c(=O)[nH]nc(Cc3ccc(F)c(C(=O)N4C[C@@H]5C[C@H]4CN5c4ccc(C#N)cn4)c3)c2c1` [Example 68, 6-((1S,4S)-5-(2-fluoro-5-((4-oxo-7-(prop-1-ynyl)-3,4-dihydrophthalazin-1-yl)methyl)benzoyl)-2,5-diazabicyclo[2.2.1]heptan-2-yl)nicotinonitrile] here?
A: 500 to 2000 nM

Q: For `[2H]C([2H])(c1ccc(F)c(C(=O)N2CCN(c3ccc(C#N)cn3)CC2)c1)c1n[nH]c(=O)c2ccc(C#CC)cc12` [Example 73, 6-(4-(2-Fluoro-5-((4-oxo-7-(prop-1-yn-1-yl)-3,4-dihydrophthalazin-1-yl)methyl-d2)benzoyl)piperazin-1-yl)nicotinonitrile], which IC50 is on record?
A: < 50 nM

Q: `CC#Cc1ccc2c(=O)[nH]nc(Cc3ccc4c(c3)C(=O)N(CCN(CC)c3ccc(C#N)cn3)C4)c2c1` [Example 75, 6-(Ethyl(2-(1-oxo-6-((4-oxo-7-(prop-1-ynyl)-3,4-dihydrophthalazin-1-yl)methyl)isoindolin-2-yl)ethyl)amino)nicotinonitrile] was tested. Which IC50 did it give?
A: > 2000 nM

Q: `CC#Cc1ccc2c(=O)[nH]nc(Cc3ccc(F)c(C#N)c3)c2c1` [Example 76, 2-Fluoro-5-((4-oxo-7-(prop-1-yn-1-yl)-3,4-dihydrophthalazin-1-yl)methyl)benzonitrile] was tested. Which IC50 did it give?
A: > 2000 nM

Q: For `CC#Cc1ccc2c(=O)[nH]nc(Cc3cc(C(=O)N4CCN(c5ccc(C#N)cn5)CC4)c(F)cc3F)c2c1` [Example 77, 6-(4-(2,4-Difluoro-5-((4-oxo-7-(prop-1-yn-1-yl)-3,4-dihydrophthalazin-1-yl)methyl)benzoyl)piperazin-1-yl)nicotinonitrile], which IC50 is on record?
A: < 50 nM

Q: For `CC#Cc1ccc2c(=O)[nH]nc(Cc3ccc(F)c(C(NCCN(CC)c4ccc(C#N)cn4)C(F)(F)F)c3)c2c1` (stereo not shown) [Example 78, 6-(Ethyl(2-((2,2,2-trifluoro-1-(2-fluoro-5-((4-oxo-7-(prop-1-yn-1-yl)-3,4-dihydrophthalazin-1-yl)methyl)phenyl)ethyl)amino)ethyl)amino)nicotinonitrile], which IC50 is on record?
A: > 2000 nM

Q: For `CC#Cc1ccc2c(=O)[nH]nc(Cc3ccc(F)c(C(=O)N4CCN(c5ncc(C)n5C)CC4)c3)c2c1` [Example 79, 4-(3-(4-(1,5-Dimethyl-1H-imidazol-2-yl)piperazine-1-carbonyl)-4-fluorobenzyl)-6-(prop-1-ynyl)phthalazin-1(2H)-one], which IC50 is on record?
A: 100 to 500 nM

Q: With `COc1c(Oc2ccccc2)ccc2c(=O)[nH]nc(Cc3ccc(F)c(C(=O)N4CCN(c5ccc(C#N)cn5)CC4)c3)c12` [Example 89, 6-(4-(2-Fluoro-5-((8-methoxy-4-oxo-7-phenoxy-3,4-dihydrophthalazin-1-yl)methyl)benzoyl)piperazin-1-yl)nicotinonitrile] as the compound, how does the IC50 read?
A: 50 to 100 nM
